In PubChem BioAssay (NCI) one finds TGI and GI50 data, which are given here for 24 compounds.

Among the test systems are SNB-78 CNS; LXFL 529 NSCLC; DMS 114 small cell lung; RXF-631 renal; MCF7 breast; T-47D breast; MDA-N; NCI/ADR-RES ovarian; BT-549 breast.
Common to all, as to assay: NCI tumour cell line growth inhibition, 48 h

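Cultured in 96-well plates, cells were exposed to test compound for 48 hours across five concentrations. At the GI50, growth is halved. TGI marks complete inhibition of growth.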 Where a SMILES comes first, the peptide text is derived from it. [ ]: non-standard residue; d: D form. 2Nal = N[CH](Cc1ccc2ccccc2c1)C(=O)O Bounds are passed on as bounds.

As to `COc1ccc(C[C@H](N)C(=O)N2C[C@@H](CO)C[C@@H](n3cnc4c(N(C)C)ncnc43)C2)cc1`, the TGI with SNB-78 CNS, in the test with LXFL 529 NSCLC and in the test with DMS 114 small cell lung was > 100 µM in each case.
For the compound `COc1cc2c(cc1OC)c1c(OC)c(OC)cc3c1c1c2sc(=S)n1CC3`, the TGI was > 100 µM in the test on SNB-78 CNS, > 100 µM in the test on LXFL 529 NSCLC and 98.1 µM in the test on DMS 114 small cell lung.
In the case of `C/C(CCn1[nH]c(=O)ccc1=O)=N\Nc1ccc([N+](=O)[O-])cc1[N+](=O)[O-]`, the TGI in the test on SNB-78 CNS, with LXFL 529 NSCLC, with DMS 114 small cell lung and with RXF-631 renal was > 100 µM in each case.
Take `CCOC(=O)c1c2cccccc2n2c(=O)cc(C)nc12`: the TGI with SNB-78 CNS and in the test on LXFL 529 NSCLC was > 100 µM throughout.
On to `N#Cc1cc(NC(=O)c2ccccc2)c(=O)n2c1[nH]c1ccccc12`, for which the TGI with SNB-78 CNS was > 100 µM; in the test with LXFL 529 NSCLC it was > 100 µM; in the test on DMS 114 small cell lung, 95.5 µM; in the test with RXF-631 renal, > 100 µM.
Turning to `Nc1ccc2c(c1)Oc1c(F)c(F)cc3c(=O)c(C(=O)O)cn-2c13`, the TGI with LXFL 529 NSCLC and with DMS 114 small cell lung was > 100 µM each time.
Regarding `Cc1cc(C)nc(NS(=O)(=O)c2ccc(NC(=O)c3ccc(Cl)c4c(Nc5ccc(S(=O)(=O)N=C(N)N)cc5)c5ccccc5nc34)cc2)n1`, the TGI was > 100 µM in the test on SNB-78 CNS, > 100 µM with LXFL 529 NSCLC and 93.6 µM with DMS 114 small cell lung.
`CN(C)CCNC(=O)c1cccc2ncc(-c3ccccc3)nc12`: the TGI was 40 µM with SNB-78 CNS, 53.7 µM in the test with LXFL 529 NSCLC, 26.6 µM with DMS 114 small cell lung and > 82.5 µM in the test on RXF-631 renal.
As for `COc1ccc(NC(=O)CCc2cc(C(C)(C)C)n[nH]2)cc1`, the TGI in the test with SNB-78 CNS, in the test on LXFL 529 NSCLC and with RXF-631 renal was > 100 µM each time.
As for `COc1cc(/C=C\c2ccc(OC(C)=O)cc2)cc(OC)c1OC`, the TGI is 84.1 µM with SNB-78 CNS, > 100 µM with LXFL 529 NSCLC, > 100 µM in the test with DMS 114 small cell lung and > 100 µM in the test with RXF-631 renal.
As for `C#CCN(N=O)C(=O)NCCCC(NC(C)=O)C(=O)NCc1ccccc1` (stereo unspecified), the TGI in the test on SNB-78 CNS, in the test with LXFL 529 NSCLC, in the test with DMS 114 small cell lung and with RXF-631 renal was > 100 µM each time.
`O=C1[C@H](Cl)[C@H]2c3cc4ccccc4nc3Oc3ccccc3N12`: the TGI is > 100 µM in the test on LXFL 529 NSCLC and 70.2 µM in the test with DMS 114 small cell lung.
With `CC(C)C(NC(=O)C(CCCCN)NC(=O)C(Cc1c[nH]c2ccccc12)NC(=O)C(Cc1ccc(O)cc1)NC(=O)C(CS)NC(=O)C(N)Cc1ccc2ccccc2c1)C(=O)NC(CS)C(=O)NC(C(N)=O)C(C)O` (stereo unspecified) (H-[2Nal]CYWKVCT-NH2; configuration not given here), the TGI with MCF7 breast is > 12.5 µM; in the test on SNB-78 CNS, 23.2 µM; with T-47D breast it was > 12.5 µM; with MDA-N, > 12.5 µM; with LXFL 529 NSCLC, > 100 µM; with DMS 114 small cell lung, > 100 µM. The TGI in the test on NCI/ADR-RES ovarian was > 12.5 µM; with RXF-631 renal, > 100 µM.
As to `CC(=O)O/N=C(Cl)/C(Cl)=N/OC(C)=O`, the TGI in the test on SNB-78 CNS, in the test with LXFL 529 NSCLC and in the test on DMS 114 small cell lung was > 100 µM each time.
For the compound `OC1CCC[C@@H]1Sc1ccccc1` (stereo partly specified), the TGI with SNB-78 CNS, in the test with LXFL 529 NSCLC, with DMS 114 small cell lung and with RXF-631 renal was > 100 µM in each case.
In the case of `COC(=O)C(C(=O)C(=O)Nc1ccc(OC)cc1[N+](=O)[O-])c1nc2cc(C)c(C)cc2[nH]c1=O` (stereo unspecified), the TGI with SNB-78 CNS, in the test with LXFL 529 NSCLC, in the test with DMS 114 small cell lung and with RXF-631 renal was > 100 µM each time.
As for `O=C(c1ccccc1)c1c(CC(O)c2ccccc2)n(C(=O)c2ccccc2)c2ccccc12` (stereo unspecified), the TGI with LXFL 529 NSCLC and in the test with DMS 114 small cell lung was > 100 µM in each case.
Consider `COc1cc(CC(C(=O)O)C(=O)O)c(OC)cc1CC(C(=O)O)C(=O)O`, for which the TGI in the test with SNB-78 CNS, with LXFL 529 NSCLC and with DMS 114 small cell lung was > 100 µM in each case.
Consider `COc1ccc(/C=c2/sc3n(c2=O)NC(c2ccc(Cl)cc2)NN=3)cc1` (stereo unspecified), for which the TGI with SNB-78 CNS, in the test on LXFL 529 NSCLC and in the test on DMS 114 small cell lung was > 100 µM throughout.
In the case of `Cc1nc(Nc2ccccc2)sc1C(=O)CC(=O)C(=O)NC12CC3CC(CC(C3)C1)C2`, the TGI with SNB-78 CNS, with LXFL 529 NSCLC and with DMS 114 small cell lung was > 100 µM throughout.
In the case of `NNC(=O)N/N=C1\C(=O)N(c2nccs2)C(=O)C(=O)C1c1nc2ccccc2s1` (stereo unspecified), the TGI with SNB-78 CNS, in the test with LXFL 529 NSCLC, in the test on DMS 114 small cell lung and in the test on RXF-631 renal was > 100 µM throughout.
With `CC(=N)N(C)O`, the TGI in the test with SNB-78 CNS is > 100 µM; in the test on LXFL 529 NSCLC, > 100 µM; in the test with DMS 114 small cell lung it was 33.2 µM; in the test with RXF-631 renal, > 100 µM.
Regarding `CN(O)C(=S)c1ccccc1`, the TGI with MCF7 breast was > 100 µM; with SNB-78 CNS, > 100 µM; in the test with T-47D breast, > 100 µM; with MDA-N, > 20.5 µM; in the test with BT-549 breast, > 100 µM; with LXFL 529 NSCLC, > 23 µM. Besides, the TGI with DMS 114 small cell lung was determined as 4.12 µM; with NCI/ADR-RES ovarian, 7.88 µM; in the test with RXF-631 renal it was 2.92 µM.
Regarding `CCC[CH2][Sn]([CH2]CCC)([O]C(=O)c1cc(F)cc(F)c1)[O][Sn]([CH2]CCC)([CH2]CCC)[O]C(=O)c1cc(F)cc(F)c1`, the values for the GI50 with SNB-78 CNS, in the test on LXFL 529 NSCLC and in the test on DMS 114 small cell lung were 0.584 µM, 0.152 µM and 0.379 µM, respectively. Besides, the TGI in the test on SNB-78 CNS was determined as 2.29 µM; in the test with LXFL 529 NSCLC, 0.612 µM; in the test on DMS 114 small cell lung, 1.53 µM.
